Key:
[1] = test system: Immortalized human podocytes; experiment: Glucose uptake assay in podocytes; assay type: cell-based
Method: (§1) Immortalized human podocytes were maintained as previously described ([10]). […] Podocytes were lysed as previously described ([21]).
(§2) Glucose uptake assay and On-Cell Western were performed essentially as in Tolvanen et al. ([19]). […] Cells were transferred on ice; incubated with anti-HA IgG in serum-free medium for 15 min, followed by additional incubation in fresh cell differentiation medium for 15 min at +37°C; and fixed with 2% paraformaldehyde for 20 min. Cells were incubated with IRDye 800 donkey anti-mouse IgG and nuclear marker DRAQ-5 (Thermo Fisher Scientific). Detection and quantitation were performed with the Odyssey Infrared Imager (Li-Cor Biosciences, Lincoln, NE, USA).
(§3) L6-GLUT4 myotubes overexpressing SHIP2 were treated and glucose uptake performed as described in C. […] Time point 15 min indicates the amount of HA detected on the cells after 15 min internalization.

[2] = target: T1, His-tagged human SHIP2 phosphatase domain (Homo sapiens, UniProt O15357); experiment: Malachite green phosphate assay, recombinant SHIP2 phosphatase domain (High Throughput Biomedicine Unit, 384-well); assay type: biochemical; conditions: for inhibition at 100 µM: inhibitors at 100 µM concentration, read-out: SHIP2 Inhibition efficiency; for IC50: purified His-tagged phosphatase domain, 100 µM PI(3,4,5)P3
T1 construct: we produced a His-tagged human SHIP2 phosphatase domain; His; made in house
T1 sequence (O15357 419-732 limits assumed): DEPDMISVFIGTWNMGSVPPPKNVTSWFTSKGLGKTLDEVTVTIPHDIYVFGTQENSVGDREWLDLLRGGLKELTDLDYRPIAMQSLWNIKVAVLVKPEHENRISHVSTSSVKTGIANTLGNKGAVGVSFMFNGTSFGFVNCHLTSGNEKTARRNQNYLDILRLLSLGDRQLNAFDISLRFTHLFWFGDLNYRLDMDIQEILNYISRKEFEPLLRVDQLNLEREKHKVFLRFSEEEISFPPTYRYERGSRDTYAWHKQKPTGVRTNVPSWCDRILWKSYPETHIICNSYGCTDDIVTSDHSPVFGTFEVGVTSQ
Method: (§4) Recombinant His-tagged human SHIP2 and SHIP1 phosphatase domains were produced as previously described ([17]). […] Immunocomplexes were bound to protein G-Sepharose beads at +4°C for 2 h and washed 3 times with malachite green phosphate assay buffer {10 mM 4-(2-hydroxyethyl)-1-piperazineethanesulfonic acid (HEPES), pH 7.25, 6 mM MgCl2, 0.1% 3-[(3-cholamidopropyl)dimethylammonio]-1-propanesulfonate (CHAPS), 250 mM sucrose, and 0.25 mM EDTA}.
(§5) The catalytic activities of the recombinant SHIP2 and SHIP1 phosphatase domains were determined by malachite green phosphate assay at the High Throughput Biomedicine Unit (University of Helsinki) using D-myo-PI(3,4,5)P3 (Echelon Biosciences, Salt Lake City, UT, USA). Different volumes, resulting in desired final concentrations of inhibitors, were transferred to the wells of 384-well plates by using the Echo550 acoustic dispenser (Labcyte, San Jose, CA, USA). Recombinant protein (100 ng) in reaction buffer {10 mM HEPES, pH 7.25, 6 mM MgCl2, 0.1% CHAPS, 250 mM sucrose, and 0.25 mM EDTA} was placed in each well (7.5 µl), and the plates were preincubated at room temperature for 15 min. The phosphatase reaction was started by adding PI(3,4,5)P3 diluted in the reaction buffer (7.5 µl) to each well to reach a final concentration of 100 µM PI(3,4,5)P3 in the 15 µl reaction volume. The plates were incubated at room temperature for 20 min, after which, 15 µl BIOMOL green reagent (Biomol, Plymouth Meeting, PA, USA) was added to each well, and then the plates were incubated for another 25 min at room temperature. Absorbance was measured at 620 nm using a Pherastar FS plate reader (BMG Labtech, Offenburg, Germany). For the manual malachite green phosphate assay in 96-well plates [see Fig. 1; and activity measurement of phosphatase and tensin homolog (PTEN; Signalchem, Richmond, BC, Canada)], the reaction volume was increased to 50 µl, and 100 µl Biomol Green Reagent was added. The catalytic activity of SHIP2 immunoprecipitated from cell and tissue lysates was determined as in Saurus et al. ([22]), omitting SHIP2 inhibitors in lysis buffer, immunoprecipitation reaction, wash, and assay buffers. AS1949490 was synthesized, as described in Supplemental Fig. S1A, or purchased from Tocris Bioscience (Bristol, United Kingdom).

[3] = target: T2, His-tagged human SHIP1 phosphatase domain (Homo sapiens, UniProt Q92835); experiment: Malachite green phosphate assay, recombinant SHIP1 phosphatase domain (High Throughput Biomedicine Unit); assay type: biochemical; conditions: for inhibition at 100 µM: inhibitors at 100 µM concentration, read-out: SHIP1 Inhibition efficiency; for IC50: purified His-tagged phosphatase domain
T2 construct: Recombinant His-tagged human SHIP2 and SHIP1 phosphatase domains were produced as previously described; His; made in house
T2 sequence (Q92835 399-715 limits assumed): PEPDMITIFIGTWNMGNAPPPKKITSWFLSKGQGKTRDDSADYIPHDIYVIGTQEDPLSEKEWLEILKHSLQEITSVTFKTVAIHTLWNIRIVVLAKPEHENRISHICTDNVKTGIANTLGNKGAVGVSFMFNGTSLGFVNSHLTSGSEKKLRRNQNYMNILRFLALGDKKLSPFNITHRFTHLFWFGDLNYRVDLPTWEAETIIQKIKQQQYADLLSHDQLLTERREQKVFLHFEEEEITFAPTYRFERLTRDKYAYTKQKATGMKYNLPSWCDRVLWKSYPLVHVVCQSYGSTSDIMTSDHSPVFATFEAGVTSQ
Method: as §4, §5

db/db mice = conditions: cited from earlier work
L6-GLUT4 myotubes = experiment: Glucose uptake assay in L6-GLUT4 myotubes; assay type: cell-based, rat; conditions: insulin 100 nM, 15 min; serum-starved
Method: as §1, §2, §3

[4] = test system: HA-GLUT4-GFP at the plasma membrane of L6-GLUT4 cells; experiment: On-Cell Western and HA-GLUT4-GFP endocytosis assay in L6-GLUT4 cells; assay type: cell-based, rat; conditions: insulin 100 nM, 15 min
Method: as §2
C) Knockdown of SHIP2 reduces metformin-induced glucose uptake. […] L6-GLUT4 myotubes overexpressing SHIP2 were treated and glucose uptake performed as described in C. […] Time point 15 min indicates the amount of HA detected on the cells after 15 min internalization.

Molecule	inhibition at 100 µM [2] [%]	IC50 [2] [µM]	inhibition at 100 µM [3] [%]	IC50 [3] [µM]	other results
NC(=O)c1ncn([C@@H]2O[C@H](CO)[C@@H](O)[C@H]2O)c1N [AICAR, 5-aminoimidazole-4-carboxamide ribonucleoside]	–	–	–	–	glucose uptake in podocytes ([1]; AICAR 1 mM, 20–24 h, alone): failed to increase; glucose uptake in podocytes, insulin combined with AICAR ([1]; AICAR 1 mM, 20–24 h plus insulin 200 nM, 15 min): failed to increase
CC(=O)O[C@]1(C(C)=O)CC[C@H]2[C@@H]3C=C(C)C4=CC(=O)CC[C@]4(C)[C@H]3CC[C@@]21C [Megestrol acetate, 17-(acetyloxy)-6-methylpregna-4,6-diene-3,20-dione]	76.6	6.2	30	24.6	–
O=C(Cc1c(F)cccc1F)Nc1cc(OCc2ccc(Cl)cc2)ccn1 [N-[4-(4-chlorobenzyloxy)pyridin-2-yl]-2-(2,6-difluorophenyl)-acetamide]	–	–	–	–	PCK1 expression in db/db mice (db/db mice): reduce
Insulin: insulin used to stimulate cells (100 or 200 nM, 15 min)	–	–	–	–	increase in glucose uptake in L6-GLUT4 cells (L6-GLUT4 myotubes): 20%; decrease in amount of HA-GLUT4-GFP on the PM after 15 min uptake (endocytosis) [4]: 20%; glucose uptake in podocytes ([1]; insulin 200 nM, 15 min): did not respond

Continued, in another order:

inhibition at 100 µM [2] [%]	IC50 [2] [µM]	inhibition at 100 µM [3] [%]	IC50 [3] [µM]	Molecule	other results
52.9	8.8	11.4	21.2	Sc1ncnc2nc[nH]c12 [Mercaptopurine, 3,7-dihydropurine-6-thione]	–
44.9	9	29.9	> 50	Nc1nc2nc[nH]c2c(=S)[nH]1 [Thioguanine, 2-Amino-1H-purine-6(7H)-thione]	–

Reference: paper PMC6338644 (The FASEB Journal, 2018)
